For 22 compounds, IC50 results are on record in patent US20220289685A1, “ANTIMALARIAL HEXAHYDROPYRIMIDINE ANALOGUES” (UCB BIOPHARMA SRL, priority 2019, published 2022).

Molecules are shown by their SMILES. Where a name gives a salt, the structure may show the parent alone.

The subject of this test is Plasmodium falciparum 3D7 strain. Briefly: P. falciparum 3D7 asexual blood stage assay (SYBR green readout). Particulars: Plasmodium falciparum, 3D7, Erythrocyte, 72 h. In kind it is cell-based. In short, it runs like this:
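P. falciparum 3D7 in A+ erythrocytes (5% haematocrit, 0.5% parasitaemia) exposed 72 h at 37 °C under 1% O2/3% CO2 to 20-point 1.5-fold titrations, 50,000–15 nM in 0.5% DMSO. SYBR green lysis overnight, fluorescence 485/528 nm; normalized to mefloquine and DMSO, EC50 from biphasic two-site fit.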
On to `C[C@@H]1C[C@H](N2C(=N)N[C@](C)(c3cccc(NC(=O)c4cccnc4C(F)(F)F)c3Cl)CC2=O)CCO1` (relative stereo) [Example 61, N-(2-Chloro-3-{(4S)-2-imino-4-methyl-1-[(2R*,4R*)-2-methyl-tetrahydropyran-4-yl]-6-oxo-hexahydropyrimidin-4-yl}phenyl)-2-(trifluoromethyl)pyridine-3-carboxamide hydrochloride], for which the IC50 – broadly, the midpoint of a concentration-inhibition curve – is 442 nM. This counts as sub-micromolar. Compound `C[C@@H]1C[C@H](N2C(=N)N[C@](C)(c3cccc(NC(=O)c4cc(F)cc(F)c4)c3Cl)CC2=O)CCO1` (relative stereo) [Example 42, N-(2-Chloro-3-{(4S)-2-imino-4-methyl-1-[(2R*,4R*)-2-methyl-tetrahydropyran-4-yl]-6-oxo-hexahydropyrimidin-4-yl]phenyl)-3,5-difluorobenzamide trifluoroacetic acid salt] came in with an IC50 of 42 nM.

In the case of `COc1ccc(C#N)cc1C(=O)Nc1cccc([C@]2(C)CC(=O)N([C@@H]3CCO[C@H](C)C3)C(=N)N2)c1Cl` (relative stereo) [Example 106, N-(2-Chloro-3-{(4S)-2-imino-4-methyl-1-[(2R*,4R*)-2-methyl-tetrahydropyran-4-yl]-6-oxo-hexahydropyrimidin-4-yl}phenyl)-5-cyano-2-methoxybenzamide hydrochloride], half-maximal inhibition (IC50) was put at 38 nM. Then `COc1cccnc1C(=O)Nc1cccc([C@]2(C)CC(=O)N([C@@H]3CCO[C@H](C)C3)C(=N)N2)c1Cl` (relative stereo) [Example 50, N-(2-Chloro-3-{(4S)-2-imino-4-methyl-1-[(2R*,4R*)-2-methyl-tetrahydropyran-4-yl]-6-oxo-hexahydropyrimidin-4-yl}phenyl)-3-methoxypyridine-2-carboxamide trifluoroacetic acid salt], with 56 nM. Then `C[C@@H]1C[C@H](N2C(=N)N[C@](C)(c3cccc(NC(=O)c4cc(C#N)cc(C(F)(F)F)c4)c3Cl)CC2=O)CCO1` (relative stereo) [Example 95, N-(2-Chloro-3-{(4S)-2-imino-4-methyl-1-[(2R*,4R*)-2-methyl-tetrahydropyran-4-yl]-6-oxo-hexahydropyrimidin-4-yl}phenyl)-3-cyano-5-(trifluoromethyl)-benzamide hydrochloride], with 34 nM. As for `C[C@@H]1CC(N2C(=N)N[C@](C)(c3cccc(NC(=O)c4cccn5nnnc45)c3Cl)CC2=O)CCO1` (relative stereo) [Example 29, N-(2-Chloro-3-{(4S)-2-imino-4-methyl-1-[(2R*,4R*)-2-methyl-tetrahydropyran-4-yl]-6-oxo-hexahydropyrimidin-4-yl}phenyl)-tetrazolo[1,5-a] pyridine-8-carboxamide trifluoroacetic acid salt], the figure is 23 nM.

As for `C[C@@H]1C[C@H](N2C(=N)N[C@](C)(c3cccc(NC(=O)c4ccccn4)c3Cl)CC2=O)CCO1` (relative stereo) [Example 6, N-(2-Chloro-3-{(4S)-2-imino-4-methyl-1-[(2R*,4R*)-2-methyl-tetrahydropyran-4-yl]-6-oxo-hexahydropyrimidin-4-yl}phenyl)-pyridine-2-carboxamide hydrochloride], half-maximal inhibition (IC50) required 33 nM. The IC50 values of the last two compounds are within 1.5-fold of each other.

Turning to `COc1c(C#N)cccc1C(=O)Nc1cccc([C@]2(C)CC(=O)N([C@@H]3CCO[C@H](C)C3)C(=N)N2)c1Cl` (relative stereo) [Example 107, N-(2-Chloro-3-{(4S)-2-imino-4-methyl-1-[(2R*,4R*)-2-methyl-tetrahydropyran-4-yl]-6-oxo-hexahydropyrimidin-4-yl}phenyl)-3-cyano-2-methoxybenzamide hydrochloride], the IC50 is 27 nM. Take `C[C@@H]1C[C@H](N2C(=N)N[C@](C)(c3cccc(NC(=O)c4ccc(F)cc4F)c3Cl)CC2=O)CCO1` (relative stereo) [Example 4, N-(2-Chloro-3-{(4S)-2-imino-4-methyl-1-[(2R*,4R*)-2-methyl-tetrahydropyran-4-yl]-6-oxo-hexahydropyrimidin-4-yl]phenyl)-2,4-difluorobenzamide hydrochloride]: half-maximal inhibition (IC50) required 23 nM. As for `C[C@@H]1C[C@H](N2C(=N)N[C@](C)(c3cccc(NC(=O)c4cc(C#N)ccc4F)c3Cl)CC2=O)CCO1` (relative stereo) [Example 76, N-(2-Chloro-3-{(4S)-2-imino-4-methyl-1-{(2R*,4R*)-2-methyl-tetrahydropyran-4-yl]-6-oxo-hexahydropyrimidin-4-yl}phenyl)-5-cyano-2-fluorobenzamide hydrochloride], the figure is 11 nM; as for `C[C@@H]1C[C@H](N2C(=N)N[C@](C)(c3cccc(NC(=O)c4cncc(Cl)c4)c3Cl)CC2=O)CCO1` (relative stereo) [Example 39, 5-Chloro-N-(2-chloro-3-{(4S)-2-imino-4-methyl-1-[(2R*,4R*)-2-methyltetrahydropyran-4-yl]-6-oxo-hexahydropyrimidin-4-yl}phenyl)-pyridine-3-carboxamide trifluoroacetic acid salt], 19 nM; as for `CC#Cc1cccc(C(=O)Nc2cccc([C@]3(C)CC(=O)N([C@@H]4CCO[C@H](C)C4)C(=N)N3)c2Cl)c1` (relative stereo) [Example 109, N-(2-Chloro-3-{(4S)-2-imino-4-methyl-1-[(2R*,4R*)-2-methyl-tetrahydropyran-4-yl]-6-oxo-hexahydropyrimidin-4-yl}phenyl)-3-(prop-1-ynyl)benzamide hydrochloride], 23 nM. As for `Cc1nonc1C(=O)Nc1cccc([C@]2(C)CC(=O)N([C@@H]3CCO[C@H](C)C3)C(=N)N2)c1Cl` (relative stereo) [Example 17, N-(2-Chloro-3-{(4S)-2-imino-4-methyl-1-[(2R*,4R*)-2-methyl-tetrahydropyran-4-yl]-6-oxo-hexahydropyrimidin-4-yl}phenyl)-4-methyl-1,2,5-oxadiazole-3-carboxamide hydrochloride], the figure is 12 nM. The compound `C[C@@H]1C[C@H](N2C(=N)N[C@](C)(c3cccc(NC(=O)c4nnc5ccccn45)c3Cl)CC2=O)CCO1` (relative stereo) [Example 62, N-(2-Chloro-3-{(4S)-2-imino-4-methyl-1-[(2R*,4R*)-2-methyl-tetrahydropyran-4-yl]-6-oxo-hexahydropyrimidin-4-yl]phenyl)-[1,2,4]triazolo[4,3-a]pyridine-3-carboxamide hydrochloride] displayed an IC50 of 23 nM. In the case of `C[C@@H]1C[C@H](N2C(=N)N[C@](C)(c3cccc(NC(=O)c4cc(Cl)cc(C#N)c4)c3Cl)CC2=O)CCO1` (relative stereo) [Example 77, 3-Chloro-N-(2-chloro-3-{(4S)-2-imino-4-methyl-1-[(2R*,4R*)-2-methyltetrahydropyran-4-yl]-6-oxo-hexahydropyrimidin-4-yl}phenyl)-5-cyanobenzamide hydrochloride], the IC50 amounted to 7 nM. Then `Cc1cncc(C(=O)Nc2cccc([C@]3(C)CC(=O)N([C@@H]4CCO[C@H](C)C4)C(=N)N3)c2Cl)n1` (relative stereo) [Example 66, N-(2-Chloro-3-{(4S)-2-imino-4-methyl-1-[(2R*,4R*)-2-methyl-tetrahydropyran-4-yl]-6-oxo-hexahydropyrimidin-4-yl}phenyl)-6-methylpyrazine-2-carboxamide hydrochloride], with 92 nM; and `C[C@@H]1C[C@H](N2C(=N)N[C@](C)(c3cccc(NC(=O)c4cnc5ccccc5n4)c3Cl)CC2=O)CCO1` (relative stereo) [Example 31, N-(2-Chloro-3-{(4S)-2-imino-4-methyl-1-[(2R*,4R*)-2-methyl-tetrahydropyran-4-yl]-6-oxo-hexahydropyrimidin-4-yl}phenyl)-quinoxaline-2-carboxamide trifluoroacetic acid salt], with 13 nM; and `C[C@@H]1C[C@H](N2C(=N)N[C@](C)(c3cccc(NC(=O)c4ccc(F)cc4OC(F)(F)F)c3Cl)CC2=O)CCO1` (relative stereo) [Example 102, N-(2-Chloro-3-{(4S)-2-imino-4-methyl-1-[(2R*,4R*)-2-methyl-tetrahydropyran-4-yl]-6-oxo-hexahydropyrimidin-4-yl}phenyl)-4-fluoro-2-(trifluoromethoxy)-benzamide hydrochloride], with 35 nM. As for `C[C@@H]1C[C@H](N2C(=N)N[C@](C)(c3cccc(NC(=O)c4cncn4C)c3Cl)CC2=O)CCO1` (relative stereo) [Example 103, N-(2-Chloro-3-{(4S)-2-imino-4-methyl-1-[(2R*,4R*)-2-methyl-tetrahydropyran-4-yl]-6-oxo-hexahydropyrimidin-4-yl}phenyl)-3-methylimidazole-4-carboxamide hydrochloride], the figure is 17 nM; as for `C[C@@]1(c2cccc(NC(=O)c3cccc(C#N)c3)c2Cl)CC(=O)N(C2CCC(F)(F)CC2)C(=N)N1` [Example 23, N-{2-Chloro-3-[(4S)-1-(4,4-difluorocyclohexyl)-2-imino-4-methyl-6-oxohexahydropyrimidin-4-yl]phenyl}-3-cyanobenzamide hydrochloride], 68 nM; as for `C[C@@H]1C[C@H](N2C(=N)N[C@](C)(c3cccc(NC(=O)c4cc5cccc(F)c5o4)c3Cl)CC2=O)CCO1` (relative stereo) [Example 44, N-(2-Chloro-3-{(4S)-2-imino-4-methyl-1-[(2R*,4R*)-2-methyl-tetrahydropyran-4-yl]-6-oxo-hexahydropyrimidin-4-yl]phenyl)-7-fluorobenzofuran-2-carboxamide trifluoroacetic acid salt], 20 nM. Then `C[C@@H]1C[C@H](N2C(=N)N[C@](C)(c3cccc(NC(=O)c4cncc(C(F)(F)F)c4)c3Cl)CC2=O)CCO1` (relative stereo) [Example 70, N-(2-Chloro-3-{(4S)-2-imino-4-methyl-1-[(2R*,4R*)-2-methyl-tetrahydropyran-4-yl]-6-oxo-hexahydropyrimidin-4-yl}phenyl)-5-(trifluoromethyl)pyridine-3-carboxamide hydrochloride], with 36 nM.
